US20040242502A1, “Semi-synthetic saponin analogs with carrier and immune stimulatory activities for DNA and RNA vaccines” (Galenica Pharmaceuticals, Inc., priority 2003, published 2004)
Values joined by “and” are separate entries in the source; they are usually repeats but may differ in a detail not shown here. Equal values may be shown once.

Test system: Female Balb/c mice
Assay: Immunization of Balb/c mice with OVA cDNA in the presence and absence of DMPS; anti-OVA antibody ELISA of serum
Assay type: in vivo
Details: anti-OVA ELISA on OVA coated plates, serum dilution 1:100, bled 14 days after last immunization, i.m. days 1 and 15, 20 OVA DNA alone or +50 DMPS
Protocol: Female Balb/c mice were immunized intramuscularly at days 1 and 15 with 0.2 mL of phosphate buffered saline solution (PBS) containing 20 μg of chicken OVA cDNA alone or with 50 μg of 3-dimethylamino-1-propylamino-DS-saponin (DMPS). The complete OVA cDNA was sub-cloned into a mammalian expression vector containing the human β-actin promotor and the neomycin resistant gene, under control of the SV40 promotor, to yield pAC-Neo-OVA. Negative control animals received PBS only. Animals were bled 14 days after the last immunization. Total IgG and IgG2a were determined by ELISA using OVA coated plates and a serum dilution of 1:100. The serum dilution was incubated at 37° C. for 1 hour and the plates were washed. After incubation with anti IgG-HRP conjugate, the plates were washed and developed with a TMB substrate for 15 minutes at room temperature, stopped by the addition of 0.18 M sulfuric acid, and read at 450 nm.

3-dimethylamino-1-propylamino-DS-saponin [DMPS]
Absorbance (450 nm), Average (average of 5 mice ± spread): 0.188 ± 0.093 | Absorbance (450 nm), individual mice (mice 1-5): 0.400 and 0.210 and 0.092 and 0.140 and 0.100
